The text below walks through data of PubChem BioAssay (NCI).

What all share (assay): NCI anticancer screen, dose series, 48 h
Test [1] deals with HCT-15 colon.
The test system of test [2] is CCRF-CEM leukemia.
Test [3] has as its system CAKI-1 renal.
The subject of test [4] is SN12C renal.
Test [5] has as its system SK-MEL-2 melanoma.
In test [6] the test system is MALME-3M melanoma.
In test [7] the test system is SNB-19 CNS.
Test [8] relates to HL-60(TB) leukemia.
In test [9] the test system is UO-31 renal.

Where “and” joins values, the source holds several entries; their conditions need not be identical. Identical values can stand only once.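 All cell lines were grown in 96-well plates and treated with compound for 48 hours. The concentration for 50% growth inhibition is given as GI50. Definition used: TGI = concentration required for complete inhibition of growth.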 Where a SMILES comes first, the peptide text is derived from it. The star is where a group is joined. Boc = CC(C)(C)OC(=O)* Where only a bound is given, the exact number is not on record here.

`N/N=C(/N)SCCCCCCCCCCS/C(N)=N/N`: the TGI in test [1] was 27.5 µM; in test [2] it was greater than 100 µM; in test [3], greater than 100 µM; in [4], greater than 100 µM; in test [5], 52.8 µM; in [6] it was 49.4 µM. The figures for the TGI in test [7], in test [8] and in test [9] were greater than 100 µM, 39.4 µM and 78.9 µM, respectively.

Consider `Cc1cc(S(=O)(=O)Nc2nc3cscc3c(=O)n2N)c(S)cc1Cl`, for which the TGI was greater than 100 µM in test [1]; greater than 100 µM in test [2]; greater than 100 µM in test [3]; greater than 100 µM in test [4]; greater than 100 µM in [5]; 90.4 µM in test [6]. The TGI in [7] and in [8] was greater than 100 µM throughout.

Turning to `O=C1C=CC(=O)c2c1ccc1c3ccccc3n(Cc3ccccc3)c21`, the TGI amounted to 46.2 µM in test [1]; 10.9 µM in test [2]; 32 µM in test [3]; 42.9 µM in test [4]; 99.6 µM in test [5]; 30.8 µM in test [6]. The results for the TGI in test [7], in test [8] and in test [9] were greater than 100 µM, 15.3 µM and 50.1 µM, respectively.

With `O=c1c2ccccc2nc(N/N=C/c2ccc([N+](=O)[O-])cc2)n1-c1ccccc1`, the TGI is greater than 100 µM in test [1]; greater than 100 µM in test [2]; 49.4 µM in [3]; greater than 100 µM in [4]; greater than 100 µM in test [6]; greater than 100 µM in test [7]. Also, the TGI in test [8] and in test [9] was greater than 100 µM each time.

As to `COc1cc2nc(N3CCC[C@H](NC4=CC(=O)c5ccccc5C4=O)C3)nc(N)c2cc1OC`, the GI50 in test [1] is 2.01 µM; in [2], 1.79 µM; in [3] it was 1.89 µM; in test [4], 1.73 µM; in test [8], 1.94 µM; in test [9], 1.49 µM. Further, the TGI in test [1] turned out to be 4.86 µM; in test [2], 5.45 µM; in [3], 3.91 µM; in test [4], 3.51 µM; in test [8], 4.04 µM; in [9], 3.16 µM.

As to `CC(=O)OCC1OC(SC2=NC(=O)CS2)C(OC(C)=O)C(OC(C)=O)C1OC(C)=O` (stereo not drawn), the GI50 is 26.3 µM and 53 µM in test [1]; > 100 µM and 27.1 µM in [5]. Further, the TGI in [1], in test [2], in [3], in test [4], in [5] and in test [6] was greater than 100 µM in each case. Moreover, the TGI was greater than 100 µM in [7]; 91.2 µM and 70.7 µM in [8]; greater than 100 µM in [9].

Take `c1ccc2c[n+](CCCC[n+]3ccc4ccccc4c3)ccc2c1`: the TGI in [1], in [2], in test [3], in test [4], in test [5] and in [7] was greater than 100 µM each time. In test [8], this molecule registered a TGI greater than 100 µM.

Turning to `Cc1cc2nc3ccccc3n2c2ccccc12`, the TGI in [1], in test [2], in [3], in [4], in test [5] and in [6] was greater than 10 µM in each case. The TGI in [7] and in test [8] was greater than 10 µM throughout.

`COC(=O)C(Cc1c[nH]c2ccccc12)NC(=O)C(Cc1c[nH]c2ccccc12)NC(=O)C(Cc1c[nH]c2ccccc12)NC(=O)C(Cc1c[nH]c2ccccc12)NC(=O)C(Cc1c[nH]c2ccccc12)NC(=O)C(Cc1c[nH]c2ccccc12)NC(=O)C(Cc1c[nH]c2ccccc12)NC(=O)OC(C)(C)C` (stereo not drawn) (Boc-WWWWWWW-OMe; configuration not given here): the TGI in test [1] is greater than 100 µM; in test [2] it was greater than 100 µM; in [3], greater than 100 µM; in test [4], greater than 100 µM; in [5], 87.9 µM; in test [6], greater than 100 µM. Also, the TGI in test [7], in test [8] and in test [9] was greater than 100 µM throughout.

`CCOC(=O)CCc1cn2cc(Br)nc(OC)c2n1`: the TGI in [1], in [2], in test [3], in test [4], in test [5] and in test [6] was greater than 100 µM in each case. Moreover, the TGI was greater than 100 µM in test [7], greater than 100 µM in [8] and 58.5 µM in test [9].

Take `CC(c1ccccc1)n1cncc1C(=O)NN1CCN(C)CC1` (stereo not drawn): the TGI in [1], in [2], in test [3], in test [4], in [5] and in test [6] was greater than 10 µM each time. The TGI in test [7] and in test [8] was greater than 10 µM in each case.
